The values that follow are results of earlier work, collected in article PMC10686834, “Targeting myeloid chemotaxis to reverse prostate cancer therapy resistance” (Nature, 2023).

One data set deals with mCRPC patients. Also on record: method as in ref (10) (a number printed in a supplementary file, which may have a reference list of its own: not looked up in the article's list). The note with it: ref (10), cited from earlier work.
The subject of data set [1] is patients with progressive castration resistant prostate cancer previously treated with docetaxel. More on the design: method as in ref (8) (a number printed in a supplementary file, which may have a reference list of its own: not looked up in the article's list). Conditions: AFFIRM, ref (8), cited from earlier work.
A further data set has as its system CYP2C9. Also on record: method as in U.S enzalutamide Full Prescribing Information. The note with it: steady state; ref U.S enzalutamide Full Prescribing Information; cited from earlier work.
Another data set concerns CYP2C19. Also on record: method as in U.S enzalutamide Full Prescribing Information. Conditions: steady state; ref U.S enzalutamide Full Prescribing Information; cited from earlier work.
In data set [2] the test system is CYP3A4. Also on record: method as in U.S enzalutamide Full Prescribing Information. The note with it: single 160mg oral dose after multiple oral doses of itraconazole; ref U.S enzalutamide Full Prescribing Information; cited from earlier work.
The subject of data set [3] is CYP3A4. Also on record: method as in U.S enzalutamide Full Prescribing Information. Conditions: steady state; ref U.S enzalutamide Full Prescribing Information; cited from earlier work.
In data set [4] the test system is chemotherapy naïve patients with progressive metastatic prostate cancer. More on the design: method as in ref (17) (a number printed in a supplementary file, which may have a reference list of its own: not looked up in the article's list). The note with it: PREVAIL, ref (17), cited from earlier work.
On the set-up of data set [5]: method as in U.S enzalutamide Full Prescribing Information. The note with it: ref U.S enzalutamide Full Prescribing Information, cited from earlier work.

Where two headings read alike, the source gives them in different places.

For the compound `C[C@]12CC[C@H](O)CC1=CC[C@@H]1[C@@H]2CC[C@]2(C)C(c3cccnc3)=CC[C@@H]12` [abiraterone], the entries for the “patients responding to abiraterone (PSA decline ≥50% below baseline maintained for ≥3 weeks)” value in the data set with mCRPC patients (patients with an NLR > 5) and in the data set with mCRPC patients (patients with an NLR ≤ 5) were 16% and 49%, respectively.

For `CNC(=O)c1ccc(N2C(=S)N(c3ccc(C#N)c(C(F)(F)F)c3)C(=O)C2(C)C)cc1F` [enzalutamide], the median overall survival in data set [1] (enzalutamide group (800 patients)) is 18.4 months. Further, the “incidence of grade 3 adverse events” value in data set [1] (enzalutamide group) was 45.3%. For the same compound, in data set [1] (enzalutamide vs placebo), the “HR, radiographic progression-free survival” value is 0.40; the “HR, time to PSA progression” value is given as 0.25; the “HR, time to first skeletal-related event” value was 0.69. In data set [1] (enzalutamide), the “quality of life response rate” value is reported as 43%, the radiographic progression-free survival is recorded as 8.3 months, the “reduction in PSA level by 50% or more” value is 54% and the “soft tissue response rate” value is recorded as 29%. In data set [1] (enzalutamide), the “time to PSA progression” value was 8.3 months and the “time to first skeletal-related event” value is reported as 16.7 months. Further, in data set [1] (patients receiving enzalutamide), the “liver-function abnormalities reported as adverse events” value is recorded as 1%. The “CYP2C9 induction in humans” value with CYP2C9 was “moderate”. For the same compound, in the data set with CYP2C19, the “CYP2C19 induction in humans” value is “moderate”. In addition, the “increase of AUC0-inf of enzalutamide plus N-desmethyl-enzalutamide” value in the data set on CYP3A4 [2] is on record as 1.3 fold. Besides, the “CYP3A4 induction in humans” value in the data set on CYP3A4 [3] is reported as “strong”. Moreover, in data set [4] (enzalutamide group), the “grade 3 or higher adverse events” value is listed as 43%; the “hypertension, grade 3 or higher” value is reported as 7%; the “patients alive at time of analysis” value is given as 72%; the “rate of radiographic progression-free survival at 12 months” value is listed as 65%. In data set [4] (enzalutamide vs placebo), the “HR, radiographic progression-free survival” value is given as 0.19; the “HR, survival” value is reported as 0.71; the “HR, time to PSA progression” value is recorded as 0.17; the “HR, time to initiation of cytotoxic therapy” value was 0.35. Moreover, the “HR, time until the first skeletal-related event” value in data set [4] (enzalutamide vs placebo) is given as 0.72. In data set [4] (enzalutamide), the “complete/partial soft tissue response” value was 59% and the “reduction in PSA level by 50% or more” value is on record as 78%. Moreover, the “time to maximum plasma concentration (tmax)” value in data set [5] (after a single oral dose) was 1 h. Moreover, the “time to reach steady state concentrations” value in data set [5] (daily oral administration) is reported as “approximately 1 month”. Further, the “average difference between peak (Cmax) and trough (Cmin) concentrations” value in data set [5] (steady state) was 25%.
